Drawing on ChEMBL document CHEMBL5241062, “Recent advances of dual FGFR inhibitors as a novel therapy for cancer” (Eur J Med Chem, 2021), this text covers IC50 and inhibition in vivo for 7 compounds.

For orientation: IC50 means the midpoint of a concentration-inhibition curve.

The target in assay [1] is T1, Platelet-derived growth factor receptor beta (Homo sapiens, UniProt P09619). The assay is described as follows: Inhibition of N-terminal 6-His tagged recombinant PDGFRbeta Kinase domain (unknown origin) expressed in baculovirus expression system incubated for 30 mins in the presence of [33p]-ATP by scintillation counting analysis.
Assay [2] addresses T2, Fibroblast growth factor receptor 1 (Homo sapiens, UniProt P11362). The assay is described as follows: Inhibition of N-terminal 6-His tagged recombinant FGFR1 Kinase domain (unknown origin) expressed in baculovirus expression system incubated for 30 mins in the presence of [33p]-ATP by scintillation counting analysis.
In assay [3] the target is T3, Vascular endothelial growth factor receptor 2 (Homo sapiens, UniProt P35968). The assay is described as follows: Inhibition of N-terminal 6-His tagged recombinant VEGFR2 Kinase domain (unknown origin) expressed in baculovirus expression system incubated for 30 mins in the presence of [33p]-ATP by scintillation counting analysis.
Assay [4] concerns the target T4, Vascular endothelial growth factor receptor 1 (Homo sapiens, UniProt P17948). The assay is described as follows: Inhibition of recombinant VEGFR1 (unknown origin) in the presence of [p33]-ATP.
Assay [5] has as its target T3, Vascular endothelial growth factor receptor 2. The assay is described as follows: Inhibition of recombinant VEGFR2 (unknown origin) in the presence of [p33]-ATP.
Assay [6] deals with RT-4. The assay is described as follows: Antitumor activity against human RT-4 cells xenografted in mouse assessed as tumor growth inhibition at 40 mg/kg/day, po administered for 21 days relative to control. It counts as functional. Conditions: RT-4, 504 h, time 21 day, read-out: TGI.
Assay [7] relates to RT-4. The assay is described as follows: Antitumor activity against human RT-4 cells xenografted in mouse assessed as tumor growth inhibition at 20 mg/kg/day, po administered for 21 days relative to control. It counts as functional. Conditions: RT-4, 504 h, time 21 day, read-out: TGI. (In xenograft studies the graft and the host belong to different species.)
Assay [8] has as its target T5, Fibroblast growth factor receptor 3 (Homo sapiens, UniProt P22607). The assay is described as follows: Inhibition of recombinant FGFR3 (unknown origin) in the presence of [p33]-ATP.
For assay [9], the target named is T6, Fibroblast growth factor receptor substrate 2 (Homo sapiens, UniProt Q8WU20).
T6 sequence (Q8WU20 whole entry): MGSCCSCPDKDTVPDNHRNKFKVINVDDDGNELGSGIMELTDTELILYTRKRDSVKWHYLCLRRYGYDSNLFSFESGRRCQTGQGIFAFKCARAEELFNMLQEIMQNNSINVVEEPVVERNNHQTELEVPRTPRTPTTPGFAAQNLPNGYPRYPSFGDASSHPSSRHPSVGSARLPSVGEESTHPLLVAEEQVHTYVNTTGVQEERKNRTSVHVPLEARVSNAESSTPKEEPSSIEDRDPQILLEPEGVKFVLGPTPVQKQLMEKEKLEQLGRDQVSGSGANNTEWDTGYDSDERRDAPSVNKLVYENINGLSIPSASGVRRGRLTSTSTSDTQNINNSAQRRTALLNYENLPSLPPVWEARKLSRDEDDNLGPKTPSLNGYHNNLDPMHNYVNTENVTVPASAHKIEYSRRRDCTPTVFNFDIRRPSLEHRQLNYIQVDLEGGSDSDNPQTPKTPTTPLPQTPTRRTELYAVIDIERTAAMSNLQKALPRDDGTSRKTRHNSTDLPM
The assay is described as follows: Inhibition of FRS2 phosphorylation at Tyr196 residue in human SNU-16 cells incubated for 20 mins by electrochemiluminescence method. It counts as cell-based.

Assay [10] concerns the target T2, Fibroblast growth factor receptor 1. The assay is described as follows: Inhibition of recombinant FGFR1 (unknown origin) in the presence of [p33]-ATP.
The target of assay [11] is T7, Fibroblast growth factor receptor 4 (Homo sapiens, UniProt P22455). The assay is described as follows: Inhibition of recombinant FGFR4 (unknown origin) in the presence of [p33]-ATP.
The target in assay [12] is T6, Fibroblast growth factor receptor substrate 2. The assay is described as follows: Inhibition of FRS2 phosphorylation at Tyr196 residue in human RT-4 cells incubated for 20 mins by electrochemiluminescence method. It counts as cell-based.
Assay [13] has as its target T8, Fibroblast growth factor receptor 2 (Homo sapiens, UniProt P21802). The assay is described as follows: Inhibition of recombinant FGFR2 (unknown origin) in the presence of [p33]-ATP.
The target of assay [14] is Vascular endothelial growth factor receptor 3 (Homo sapiens, UniProt P35916). The assay is described as follows: Inhibition of recombinant VEGFR3 (unknown origin) in the presence of [p33]-ATP.
The target in assay [15] is T6, Fibroblast growth factor receptor substrate 2. The assay is described as follows: Inhibition of FRS2 phosphorylation at Tyr196 residue in human NCI-H1581 cells incubated for 20 mins by electrochemiluminescence method. It counts as cell-based.
Assay [16] concerns the target T9, Epidermal growth factor receptor (Homo sapiens, UniProt P00533). The assay is described as follows: Inhibition of EGFR (unknown origin) using biotin as substrate incubated for 1 hrs in the presence of ATP by HTRF assay. In general terms: TR-FRET usually uses a lanthanide donor and a delayed reading to cut background.
The target in assay [17] is T7, Fibroblast growth factor receptor 4. The assay is described as follows: Inhibition of FGFR4 (unknown origin) using biotin as substrate incubated for 1 hrs in the presence of ATP by HTRF assay.
For assay [18] the target is unchanged. The assay is described as follows: Inhibition of FGFR4 (unknown origin) by Z'-LYTE Kinase assay.
Assay [19] has as its target T2, Fibroblast growth factor receptor 1. The assay is described as follows: Inhibition of FGFR1 (unknown origin) by Z'-LYTE Kinase assay.
In assay [20] the target is T8, Fibroblast growth factor receptor 2. The assay is described as follows: Inhibition of FGFR2 (unknown origin) by Z'-LYTE Kinase assay.
In assay [21] the target is T9, Epidermal growth factor receptor. The assay is described as follows: Inhibition of EGFR (unknown origin) by Z'-LYTE Kinase assay.
Assay [22] concerns the target T5, Fibroblast growth factor receptor 3. The assay is described as follows: Inhibition of FGFR3 (unknown origin) by Z'-LYTE Kinase assay.
Assay [23] addresses T2, Fibroblast growth factor receptor 1. The assay is described as follows: Inhibition of recombinant FGFR1 (unknown origin) incubated for 60 mins by ELISA analysis. On the technique in general: In an ELISA, binding on a coated surface is turned into a signal by an enzyme label.
Assay [24] has as its target T4, Vascular endothelial growth factor receptor 1. The assay is described as follows: Inhibition of recombinant VEGFR1 (unknown origin) incubated for 60 mins by ELISA analysis.
Assay [25] has as its target T3, Vascular endothelial growth factor receptor 2. The assay is described as follows: Inhibition of recombinant VEGFR2 (unknown origin) incubated for 60 mins by ELISA analysis.
In assay [26] the target is T1, Platelet-derived growth factor receptor beta. The assay is described as follows: Inhibition of recombinant PDGFRbeta (unknown origin) incubated for 60 mins by ELISA analysis.
The target in assay [27] is T8, Fibroblast growth factor receptor 2. The assay is described as follows: Inhibition of recombinant FGFR2 (unknown origin) incubated for 60 mins by ELISA analysis.
The target of assay [28] is T5, Fibroblast growth factor receptor 3. The assay is described as follows: Inhibition of recombinant FGFR3 (unknown origin) incubated for 60 mins by ELISA analysis.
The target of assay [29] is T10, Receptor-type tyrosine-protein kinase FLT3 (Homo sapiens, UniProt P36888).
T10 sequence (P36888 whole entry): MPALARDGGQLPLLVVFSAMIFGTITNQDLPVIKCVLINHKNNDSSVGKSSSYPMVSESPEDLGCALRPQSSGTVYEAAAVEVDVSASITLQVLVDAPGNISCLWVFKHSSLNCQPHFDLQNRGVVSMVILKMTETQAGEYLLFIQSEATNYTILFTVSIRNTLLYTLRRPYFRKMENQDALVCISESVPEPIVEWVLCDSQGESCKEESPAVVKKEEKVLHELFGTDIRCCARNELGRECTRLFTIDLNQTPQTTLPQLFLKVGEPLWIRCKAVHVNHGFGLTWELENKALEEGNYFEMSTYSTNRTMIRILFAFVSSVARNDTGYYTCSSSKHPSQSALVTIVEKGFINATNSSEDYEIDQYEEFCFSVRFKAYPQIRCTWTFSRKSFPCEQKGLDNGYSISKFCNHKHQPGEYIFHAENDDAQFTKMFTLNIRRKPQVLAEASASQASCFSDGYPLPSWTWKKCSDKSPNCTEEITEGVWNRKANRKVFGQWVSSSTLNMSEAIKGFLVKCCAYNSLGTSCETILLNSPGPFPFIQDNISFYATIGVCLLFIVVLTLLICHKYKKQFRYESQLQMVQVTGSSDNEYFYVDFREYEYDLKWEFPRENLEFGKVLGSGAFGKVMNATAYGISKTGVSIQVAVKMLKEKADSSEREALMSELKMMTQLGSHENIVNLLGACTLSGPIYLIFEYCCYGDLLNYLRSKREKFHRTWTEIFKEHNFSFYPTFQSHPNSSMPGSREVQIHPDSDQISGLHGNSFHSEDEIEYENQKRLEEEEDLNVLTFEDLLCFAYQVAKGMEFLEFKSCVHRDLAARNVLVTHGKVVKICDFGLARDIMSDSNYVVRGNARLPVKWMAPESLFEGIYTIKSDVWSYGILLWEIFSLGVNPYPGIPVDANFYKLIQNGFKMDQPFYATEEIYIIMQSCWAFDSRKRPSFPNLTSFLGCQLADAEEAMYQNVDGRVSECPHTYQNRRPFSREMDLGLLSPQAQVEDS
The assay is described as follows: Inhibition of His tagged recombinant human FLT3 (564 to 958 residues) expressed in baculovirus expression system incubated for […] in the presence of ATP by Z'-LYTE kinase assay.

Assay [30] addresses Platelet-derived growth factor receptor alpha (Homo sapiens, UniProt P16234). The assay is described as follows: Inhibition of PDGFRalpha (unknown origin) incubated for […] in the presence of ATP by Z'-LYTE kinase assay.
A further assay deals with NCI-H1581. The assay is described as follows: Antitumor activity against human NCI-H1581 cells assessed as tumor growth inhibition at 50 mg/kg, po administered for 14 days relative to control. It counts as functional. Conditions: NCI-H1581, 336 h, time 14 day, read-out: TGI.

T2 sequence (P11362 whole entry, the tested form may be a part): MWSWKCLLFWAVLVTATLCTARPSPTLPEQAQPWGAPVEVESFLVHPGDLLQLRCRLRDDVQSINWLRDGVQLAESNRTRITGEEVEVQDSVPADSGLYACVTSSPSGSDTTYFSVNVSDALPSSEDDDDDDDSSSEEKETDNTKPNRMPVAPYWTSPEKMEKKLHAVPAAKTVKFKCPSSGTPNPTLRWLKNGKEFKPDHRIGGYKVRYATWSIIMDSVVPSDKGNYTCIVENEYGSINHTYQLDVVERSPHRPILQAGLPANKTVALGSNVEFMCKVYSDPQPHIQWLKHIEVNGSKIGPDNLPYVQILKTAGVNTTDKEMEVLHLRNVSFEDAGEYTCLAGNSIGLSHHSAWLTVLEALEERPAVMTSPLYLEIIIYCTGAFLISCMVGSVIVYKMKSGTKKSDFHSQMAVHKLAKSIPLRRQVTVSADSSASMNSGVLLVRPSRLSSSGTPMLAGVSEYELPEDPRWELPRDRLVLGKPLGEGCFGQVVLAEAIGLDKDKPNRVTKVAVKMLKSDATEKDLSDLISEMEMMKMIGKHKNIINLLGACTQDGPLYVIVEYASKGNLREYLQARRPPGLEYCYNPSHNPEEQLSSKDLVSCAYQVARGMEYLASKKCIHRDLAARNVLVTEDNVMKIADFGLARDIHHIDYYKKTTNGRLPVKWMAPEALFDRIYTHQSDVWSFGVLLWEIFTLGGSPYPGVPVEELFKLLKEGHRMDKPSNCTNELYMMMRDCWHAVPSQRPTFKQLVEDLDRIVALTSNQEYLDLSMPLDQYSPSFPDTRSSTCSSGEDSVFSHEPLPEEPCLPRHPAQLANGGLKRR
T7 sequence (P22455 whole entry): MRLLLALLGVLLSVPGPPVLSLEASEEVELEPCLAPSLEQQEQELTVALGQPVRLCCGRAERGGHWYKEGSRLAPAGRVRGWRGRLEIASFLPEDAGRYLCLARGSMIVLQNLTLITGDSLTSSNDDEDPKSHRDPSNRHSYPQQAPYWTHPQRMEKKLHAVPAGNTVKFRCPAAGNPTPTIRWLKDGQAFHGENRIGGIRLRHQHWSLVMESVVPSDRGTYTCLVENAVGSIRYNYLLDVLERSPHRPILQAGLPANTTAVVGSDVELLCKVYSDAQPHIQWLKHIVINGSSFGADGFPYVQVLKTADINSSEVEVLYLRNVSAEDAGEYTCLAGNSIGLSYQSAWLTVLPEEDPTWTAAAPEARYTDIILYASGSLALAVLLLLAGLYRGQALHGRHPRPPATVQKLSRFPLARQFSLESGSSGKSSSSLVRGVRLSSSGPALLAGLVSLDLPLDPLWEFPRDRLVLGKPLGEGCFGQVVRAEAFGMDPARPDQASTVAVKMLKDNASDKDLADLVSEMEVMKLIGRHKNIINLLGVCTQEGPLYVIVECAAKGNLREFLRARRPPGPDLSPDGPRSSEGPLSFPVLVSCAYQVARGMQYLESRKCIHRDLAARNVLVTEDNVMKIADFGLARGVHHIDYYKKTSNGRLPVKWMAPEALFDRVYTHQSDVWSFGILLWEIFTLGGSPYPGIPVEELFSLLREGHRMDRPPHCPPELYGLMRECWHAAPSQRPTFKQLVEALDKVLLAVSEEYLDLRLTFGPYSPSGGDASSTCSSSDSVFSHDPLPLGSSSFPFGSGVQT
T8 sequence (P21802 whole entry): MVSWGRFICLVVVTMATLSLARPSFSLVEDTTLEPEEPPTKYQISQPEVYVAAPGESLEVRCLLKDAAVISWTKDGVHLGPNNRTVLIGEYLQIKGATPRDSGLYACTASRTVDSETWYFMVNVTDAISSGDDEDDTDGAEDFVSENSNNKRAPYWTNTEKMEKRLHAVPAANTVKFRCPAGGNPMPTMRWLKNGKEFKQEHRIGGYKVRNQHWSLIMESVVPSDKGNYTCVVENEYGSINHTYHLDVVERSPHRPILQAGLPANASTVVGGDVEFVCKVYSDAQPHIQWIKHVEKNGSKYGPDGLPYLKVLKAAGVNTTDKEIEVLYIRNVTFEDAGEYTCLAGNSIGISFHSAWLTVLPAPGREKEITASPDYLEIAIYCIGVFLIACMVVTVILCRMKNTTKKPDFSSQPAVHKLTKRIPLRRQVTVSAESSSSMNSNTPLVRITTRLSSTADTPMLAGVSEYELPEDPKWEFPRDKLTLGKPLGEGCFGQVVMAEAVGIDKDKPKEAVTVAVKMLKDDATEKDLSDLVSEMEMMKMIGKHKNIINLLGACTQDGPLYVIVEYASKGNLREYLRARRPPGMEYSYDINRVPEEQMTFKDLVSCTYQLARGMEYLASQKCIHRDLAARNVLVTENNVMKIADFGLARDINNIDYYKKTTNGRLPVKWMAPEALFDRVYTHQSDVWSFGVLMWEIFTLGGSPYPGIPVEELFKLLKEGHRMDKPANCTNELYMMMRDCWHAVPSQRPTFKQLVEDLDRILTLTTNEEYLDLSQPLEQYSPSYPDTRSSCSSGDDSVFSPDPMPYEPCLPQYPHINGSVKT
T3 sequence (P35968 whole entry, the tested form may be a part): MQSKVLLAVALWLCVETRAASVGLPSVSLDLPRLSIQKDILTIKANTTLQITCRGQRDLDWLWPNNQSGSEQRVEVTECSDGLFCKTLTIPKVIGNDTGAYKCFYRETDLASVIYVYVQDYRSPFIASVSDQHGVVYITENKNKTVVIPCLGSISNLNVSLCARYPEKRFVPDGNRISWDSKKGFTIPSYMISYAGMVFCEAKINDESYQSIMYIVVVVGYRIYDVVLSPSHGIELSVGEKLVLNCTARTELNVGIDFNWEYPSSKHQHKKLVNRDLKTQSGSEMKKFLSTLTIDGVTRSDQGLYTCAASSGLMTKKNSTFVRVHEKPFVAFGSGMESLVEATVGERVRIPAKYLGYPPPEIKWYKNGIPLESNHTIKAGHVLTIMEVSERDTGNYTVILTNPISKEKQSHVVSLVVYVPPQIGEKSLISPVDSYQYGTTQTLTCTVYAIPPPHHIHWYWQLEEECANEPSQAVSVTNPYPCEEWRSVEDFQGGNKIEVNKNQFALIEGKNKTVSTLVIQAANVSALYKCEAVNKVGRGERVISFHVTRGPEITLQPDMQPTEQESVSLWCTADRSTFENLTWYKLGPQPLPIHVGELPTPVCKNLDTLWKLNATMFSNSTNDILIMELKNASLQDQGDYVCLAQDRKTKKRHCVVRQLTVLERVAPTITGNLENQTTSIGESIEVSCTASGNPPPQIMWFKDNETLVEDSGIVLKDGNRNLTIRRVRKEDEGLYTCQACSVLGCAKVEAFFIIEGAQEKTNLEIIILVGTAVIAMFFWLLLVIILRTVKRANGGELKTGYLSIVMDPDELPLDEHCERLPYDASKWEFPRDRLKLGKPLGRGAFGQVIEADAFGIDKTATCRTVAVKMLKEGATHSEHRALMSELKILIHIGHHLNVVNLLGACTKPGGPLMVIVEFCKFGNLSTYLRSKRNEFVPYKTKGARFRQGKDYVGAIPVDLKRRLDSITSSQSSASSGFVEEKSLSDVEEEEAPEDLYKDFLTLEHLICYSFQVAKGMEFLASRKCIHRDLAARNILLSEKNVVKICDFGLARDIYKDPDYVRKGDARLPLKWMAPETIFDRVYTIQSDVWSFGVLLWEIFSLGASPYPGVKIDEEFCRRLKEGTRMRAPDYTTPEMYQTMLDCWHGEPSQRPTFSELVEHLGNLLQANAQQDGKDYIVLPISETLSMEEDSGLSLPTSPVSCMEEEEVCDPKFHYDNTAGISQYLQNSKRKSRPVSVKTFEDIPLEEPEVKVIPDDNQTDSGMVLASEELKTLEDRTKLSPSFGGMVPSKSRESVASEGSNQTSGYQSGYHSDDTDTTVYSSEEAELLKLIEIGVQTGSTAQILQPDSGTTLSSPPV
T5 sequence (P22607 whole entry): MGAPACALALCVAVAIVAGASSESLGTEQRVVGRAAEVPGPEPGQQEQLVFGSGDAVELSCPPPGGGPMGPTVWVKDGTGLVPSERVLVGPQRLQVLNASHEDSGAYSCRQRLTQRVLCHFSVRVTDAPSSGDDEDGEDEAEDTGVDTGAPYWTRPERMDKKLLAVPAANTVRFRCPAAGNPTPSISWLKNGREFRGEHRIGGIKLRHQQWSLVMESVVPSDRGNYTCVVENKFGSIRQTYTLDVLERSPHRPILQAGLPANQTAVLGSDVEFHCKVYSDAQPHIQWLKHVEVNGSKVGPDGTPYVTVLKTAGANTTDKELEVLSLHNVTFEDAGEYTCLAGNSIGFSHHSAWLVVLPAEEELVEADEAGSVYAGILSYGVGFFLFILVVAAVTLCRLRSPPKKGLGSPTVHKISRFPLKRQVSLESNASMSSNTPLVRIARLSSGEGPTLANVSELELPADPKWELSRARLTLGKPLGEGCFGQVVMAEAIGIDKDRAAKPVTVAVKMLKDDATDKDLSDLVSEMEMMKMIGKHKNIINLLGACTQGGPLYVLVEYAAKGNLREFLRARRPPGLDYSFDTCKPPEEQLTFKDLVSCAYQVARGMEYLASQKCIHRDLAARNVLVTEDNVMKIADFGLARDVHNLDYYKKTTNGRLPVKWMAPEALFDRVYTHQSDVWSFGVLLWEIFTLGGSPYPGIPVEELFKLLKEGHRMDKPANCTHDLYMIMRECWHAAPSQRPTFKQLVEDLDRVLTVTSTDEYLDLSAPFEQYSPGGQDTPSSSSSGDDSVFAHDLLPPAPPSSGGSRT

For `O=C(O)CCc1c(/C=C2\C(=O)Nc3ccc(F)cc32)[nH]c2c1C(=O)CCC2`, the half-maximal inhibitory concentration (IC50) in assay [1] was found to be 0.042 µM; in assay [2], 0.26 µM; in [3], 0.025 µM.
Regarding `Cn1cc(-c2ccc3c(c2)ncn3-c2cc(NS(=O)(=O)C3CC3)cc(-c3ccc(F)cc3F)c2)cn1`, the IC50 in [4] turned out to be 0.026 µM; in assay [5], 0.009 µM; in assay [8] it was 0.006 µM; in assay [9], 0.059 µM; in assay [10], 0.011 µM; in assay [11] it was 0.035 µM. Also, the IC50 in assay [12] was 0.089 µM; in [13], 0.016 µM; in assay [14] it was 0.005 µM; in assay [15], 0.093 µM. Further, the inhibition in vivo at 40 mg/kg/day with RT-4 [6] was 92%. For the same compound, the inhibition in vivo at 20 mg/kg/day with RT-4 [7] turned out to be 37%.
`COc1cc2ncnc(Oc3ccc(NC(=O)Nc4cccc(C(F)(F)F)c4)c4ccccc34)c2cc1OC`: the results for the IC50 in assay [16] and in assay [17] were 0.0862 µM and 0.0839 µM, respectively.
Take `C=CC(=O)Nc1ccc(CN(C(=O)Nc2c(Cl)c(OC)cc(OC)c2Cl)c2cc(Nc3ccc(N4CCN(C)CC4)cc3)ncn2)cc1`: the IC50 in assay [18] worked out at 0.035 µM; in assay [19], 0.003 µM; in [20], 0.021 µM; in [21], 0.043 µM; in [22], 0.031 µM.
For `CNC(=O)c1cccc2cc(Oc3ccnc(NC(=O)c4ccc(N5CCN(CCO)CC5)cc4)c3)ccc12`, the IC50 in assay [23] amounted to 0.0018 µM; in [24] it was 0.0056 µM; in [25], 0.0012 µM; in [26] it was 0.0078 µM; in assay [27] it was 0.0019 µM; in [28], 0.0069 µM.
Regarding `Cc1ccc(C(=O)Nc2ccc(CN3CCN(C)CC3)c(C(F)(F)F)c2)cc1C#Cc1cnc2[nH]ncc2c1` [OLVEREMBATINIB], the IC50 in assay [29] turned out to be 0.00133 µM; in assay [30] it was 0.00208 µM.
As for `COc1cc(OC)c(Cl)c(-c2ccc3c(NC(=O)c4ccc(N5CCNC(C)(C)C5)cc4)n[nH]c3n2)c1Cl` [SEGIGRATINIB], the inhibition in vivo at 50 mg/kg in the assay on NCI-H1581 amounted to 96.4%.
